In ChEMBL document CHEMBL5696441 (Nat Chem Biol, 2011):

Tests used:
[1] = Anti-inflammatory activity against human derived high respond PBMC cells assessed as inhibition in stimulated IL-8 cytokine release incubated for 2 hrs in the presence of LPS/SEB/aCD28 by Luminex based sandwich immunoassay; format: functional, cell-based
[2] = molecular target: Tyrosine-protein kinase FRK (Homo sapiens) (UniProt P42685); assay: Inhibition of FRK (unknown origin) assessed as remaining activity at 1 uM by Kinome scan method relative to control
[3] = molecular target: Serine/threonine-protein kinase SIK1 (Homo sapiens) (UniProt P57059); assay: Inhibition of SIK (unknown origin) assessed as remaining activity at 1 uM by Kinome scan method relative to control
[4] = molecular target: Ephrin type-B receptor 3 (Homo sapiens) (UniProt P54753); assay: Inhibition of EPHB3 (unknown origin) assessed as remaining activity at 1 uM by Kinome scan method relative to control
[5] = molecular target: Epidermal growth factor receptor (Homo sapiens) (UniProt P00533); assay: Inhibition of human EGFR assessed as residual activity at 1 uM using PolyEY as substrate in presence of 33P-ATP by ProQinase assay relative to control
[6] = molecular target: STE20-like serine/threonine-protein kinase (Homo sapiens) (UniProt Q9H2G2); assay: Inhibition of human SLK assessed as residual activity at 1 uM using RB-S6P as substrate in presence of 33P-ATP by ProQinase assay relative to control
[7] = system: Leucine-rich repeat serine/threonine-protein kinase 2 (Homo sapiens), Q5S007 [I2020T]; assay: Inhibition of human LRRK2 I2020T mutant assessed as residual activity at 1 uM using RBER-CHKtide as substrate in presence of 33P-ATP by ProQinase assay relative to control
[8] = molecular target: Casein kinase II subunit alpha' (Homo sapiens) (UniProt P19784); assay: Inhibition of CSNK2A2 (unknown origin) assessed as remaining activity at 1 uM by Kinome scan method relative to control
[9] = molecular target: NUAK family SNF1-like kinase 2 (Homo sapiens) (UniProt Q9H093); assay: Inhibition of SNARK (unknown origin) assessed as remaining activity at 1 uM by Kinome scan method relative to control
[10] = molecular target: Inhibitor of nuclear factor kappa-B kinase subunit beta (Homo sapiens) (UniProt O14920); assay: Inhibition of IKK-beta (unknown origin) assessed as remaining activity at 1 uM by Kinome scan method relative to control
[11] = molecular target: Tyrosine-protein kinase Fer (Homo sapiens) (UniProt P16591); assay: Inhibition of human FER assessed as residual activity at 1 uM using polyEY as substrate in presence of 33P-ATP by ProQinase assay relative to control
[12] = system: eIF-2-alpha kinase GCN2 (Homo sapiens), Q9P2K8 [S808G]; assay: Inhibition of GCN2 S808G mutant kinase domain 2 (unknown origin) assessed as remaining activity at 1 uM by Kinome scan method relative to control
[13] = molecular target: Serine/threonine-protein kinase SIK2 (Homo sapiens) (UniProt Q9H0K1); assay: Inhibition of human SNF1LK2 assessed as residual activity at 1 uM using RBER-CHKtide as substrate in presence of 33P-ATP by ProQinase assay relative to control
[14] = molecular target: Casein kinase I isoform epsilon (Homo sapiens) (UniProt P49674); assay: Inhibition of CSNK1E (unknown origin) assessed as remaining activity at 1 uM by Kinome scan method relative to control
[15] = molecular target: Glycogen synthase kinase-3 beta (Homo sapiens) (UniProt P49841); assay: Inhibition of GSK3beta (unknown origin) assessed as remaining activity at 1 uM by Kinome scan method relative to control
[16] = molecular target: MAP kinase-activated protein kinase 5 (Homo sapiens) (UniProt Q8IW41); assay: Inhibition of human MAPKAPK5 assessed as residual activity at 1 uM using RBER-CHKtide as substrate in presence of 33P-ATP by ProQinase assay relative to control
[17] = molecular target: Ribosomal protein S6 kinase alpha-2 (Homo sapiens) (UniProt Q15349); assay: Inhibition of human RPS6KA2 assessed as residual activity at 1 uM using bio-4xCHKT as substrate in presence of 33P-ATP by ProQinase assay relative to control
[18] = system: Epidermal growth factor receptor (Homo sapiens), P00533 [UNDEFINED MUTATION]; assay: Inhibition of EGFR S752-I759del mutant (unknown origin) assessed as remaining activity at 1 uM by Kinome scan method relative to control
[19] = molecular target: Tyrosine-protein kinase ZAP-70 (Homo sapiens) (UniProt P43403); assay: Inhibition of human ZAP70 assessed as residual activity at 1 uM using polyEY as substrate in presence of 33P-ATP by ProQinase assay relative to control
[20] = molecular target: Serine/threonine-protein kinase N2 (Homo sapiens) (UniProt Q16513); assay: Inhibition of human PRK2 assessed as residual activity at 1 uM using RBER-CHKtide as substrate in presence of 33P-ATP by ProQinase assay relative to control
[21] = molecular target: Dual specificity protein kinase CLK4 (Homo sapiens) (UniProt Q9HAZ1); assay: Inhibition of human CLK4 assessed as residual activity at 1 uM using MBP as substrate in presence of 33P-ATP by ProQinase assay relative to control
[22] = molecular target: LIM domain kinase 1 (Homo sapiens) (UniProt P53667); assay: Inhibition of human LIMK1 assessed as residual activity at 1 uM using CFL2 as substrate in presence of 33P-ATP by ProQinase assay relative to control
[23] = molecular target: Tyrosine-protein kinase ABL2 (Homo sapiens) (UniProt P42684); assay: Inhibition of human ABL2 assessed as residual activity at 1 uM using Poly(Ala,Glu,Lys,Tyr)6:2:5:1 as substrate in presence of 33P-ATP by ProQinase assay relative to control
[24] = molecular target: Inhibitor of nuclear factor kappa-B kinase subunit epsilon (Homo sapiens) (UniProt Q14164); assay: Inhibition of IKK-epsilon (unknown origin) assessed as remaining activity at 1 uM by Kinome scan method relative to control
[25] = Anti-inflammatory activity against human derived high respond PBMC cells assessed as inhibition in stimulated INFgamma cytokine release incubated for 2 hrs in the presence of LPS/SEB/aCD28 by Luminex based sandwich immunoassay; format: functional, cell-based
[26] = molecular target: RAC-alpha serine/threonine-protein kinase (Homo sapiens) (UniProt P31749); assay: Inhibition of AKT1 (unknown origin) assessed as remaining activity at 1 uM by Kinome scan method relative to control
CYP2C9 = CYP2C9 (Homo sapiens, UniProt P11712); assay: Inhibition of CYP2C9 (unknown origin) at 10 uM relative to control; format: ADME
[27] = molecular target: MAP kinase-activated protein kinase 3 (Homo sapiens) (UniProt Q16644); assay: Inhibition of human MAPKAPK3 assessed as residual activity at 1 uM using bio-4xCHKT as substrate in presence of 33P-ATP by ProQinase assay relative to control
[28] = molecular target: Casein kinase I isoform gamma-2 (Homo sapiens) (UniProt P78368); assay: Inhibition of human CK1gamma2 assessed as residual activity at 1 uM using casein as substrate in presence of 33P-ATP by ProQinase assay relative to control

Chain of eIF-2-alpha kinase GCN2 (Homo sapiens), Q9P2K8 [S808G] (Q9P2K8 whole entry S808G, the tested form may be a part): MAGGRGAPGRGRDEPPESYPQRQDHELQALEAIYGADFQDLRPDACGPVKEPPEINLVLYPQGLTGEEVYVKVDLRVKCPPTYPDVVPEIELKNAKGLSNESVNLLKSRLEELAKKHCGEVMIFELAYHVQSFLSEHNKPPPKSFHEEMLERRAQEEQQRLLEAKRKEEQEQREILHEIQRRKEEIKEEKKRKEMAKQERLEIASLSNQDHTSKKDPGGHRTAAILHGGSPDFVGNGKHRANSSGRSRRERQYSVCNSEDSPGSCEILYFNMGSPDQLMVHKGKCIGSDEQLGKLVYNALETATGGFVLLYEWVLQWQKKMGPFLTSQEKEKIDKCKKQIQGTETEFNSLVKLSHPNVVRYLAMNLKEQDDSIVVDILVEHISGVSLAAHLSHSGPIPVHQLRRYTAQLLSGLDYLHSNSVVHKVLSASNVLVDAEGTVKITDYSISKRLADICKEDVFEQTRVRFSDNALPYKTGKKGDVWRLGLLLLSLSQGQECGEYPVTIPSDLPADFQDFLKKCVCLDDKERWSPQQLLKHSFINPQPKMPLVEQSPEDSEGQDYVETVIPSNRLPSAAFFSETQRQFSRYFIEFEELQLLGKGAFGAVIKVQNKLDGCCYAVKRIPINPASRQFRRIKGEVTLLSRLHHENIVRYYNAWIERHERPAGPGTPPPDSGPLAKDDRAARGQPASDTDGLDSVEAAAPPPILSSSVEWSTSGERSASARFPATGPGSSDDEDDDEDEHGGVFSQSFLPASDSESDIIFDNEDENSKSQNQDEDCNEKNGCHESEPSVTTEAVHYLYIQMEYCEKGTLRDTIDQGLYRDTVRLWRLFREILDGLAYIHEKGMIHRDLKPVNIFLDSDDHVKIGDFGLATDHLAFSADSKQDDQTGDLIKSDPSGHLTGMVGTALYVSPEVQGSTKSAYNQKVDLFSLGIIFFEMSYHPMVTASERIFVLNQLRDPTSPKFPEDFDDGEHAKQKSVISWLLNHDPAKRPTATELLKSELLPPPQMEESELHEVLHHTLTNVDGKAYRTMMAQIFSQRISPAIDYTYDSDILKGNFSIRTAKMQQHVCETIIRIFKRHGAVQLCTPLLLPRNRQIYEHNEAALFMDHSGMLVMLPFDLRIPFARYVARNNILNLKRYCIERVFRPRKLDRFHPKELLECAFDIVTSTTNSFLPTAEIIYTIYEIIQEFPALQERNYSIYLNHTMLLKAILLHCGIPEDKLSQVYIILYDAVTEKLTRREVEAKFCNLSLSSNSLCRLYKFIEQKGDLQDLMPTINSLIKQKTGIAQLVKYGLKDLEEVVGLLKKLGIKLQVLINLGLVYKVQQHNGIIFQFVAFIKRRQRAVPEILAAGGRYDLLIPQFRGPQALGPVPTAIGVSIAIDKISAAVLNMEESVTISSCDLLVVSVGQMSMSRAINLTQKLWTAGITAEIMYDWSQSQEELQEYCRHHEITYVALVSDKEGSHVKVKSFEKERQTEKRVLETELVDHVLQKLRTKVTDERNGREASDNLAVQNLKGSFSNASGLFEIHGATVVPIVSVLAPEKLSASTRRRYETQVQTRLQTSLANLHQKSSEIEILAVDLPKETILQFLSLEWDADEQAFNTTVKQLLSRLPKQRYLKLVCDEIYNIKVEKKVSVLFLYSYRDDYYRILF
Chain of MAP kinase-activated protein kinase 5 (Homo sapiens) (Q8IW41 whole entry): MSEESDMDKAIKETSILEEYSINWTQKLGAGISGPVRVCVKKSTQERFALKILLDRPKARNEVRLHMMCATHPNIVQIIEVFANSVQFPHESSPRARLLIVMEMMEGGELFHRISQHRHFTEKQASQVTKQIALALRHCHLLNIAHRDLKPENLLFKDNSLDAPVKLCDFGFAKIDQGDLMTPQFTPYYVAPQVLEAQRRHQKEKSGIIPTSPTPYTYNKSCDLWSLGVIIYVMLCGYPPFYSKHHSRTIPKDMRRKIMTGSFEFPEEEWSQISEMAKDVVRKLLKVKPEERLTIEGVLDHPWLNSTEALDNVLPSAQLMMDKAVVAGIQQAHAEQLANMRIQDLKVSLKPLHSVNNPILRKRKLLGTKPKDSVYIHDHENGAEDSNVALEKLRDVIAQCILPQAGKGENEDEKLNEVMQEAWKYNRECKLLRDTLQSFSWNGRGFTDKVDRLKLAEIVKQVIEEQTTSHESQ
Chain of LIM domain kinase 1 (Homo sapiens) (P53667 whole entry, looked up, the tested form may be a part): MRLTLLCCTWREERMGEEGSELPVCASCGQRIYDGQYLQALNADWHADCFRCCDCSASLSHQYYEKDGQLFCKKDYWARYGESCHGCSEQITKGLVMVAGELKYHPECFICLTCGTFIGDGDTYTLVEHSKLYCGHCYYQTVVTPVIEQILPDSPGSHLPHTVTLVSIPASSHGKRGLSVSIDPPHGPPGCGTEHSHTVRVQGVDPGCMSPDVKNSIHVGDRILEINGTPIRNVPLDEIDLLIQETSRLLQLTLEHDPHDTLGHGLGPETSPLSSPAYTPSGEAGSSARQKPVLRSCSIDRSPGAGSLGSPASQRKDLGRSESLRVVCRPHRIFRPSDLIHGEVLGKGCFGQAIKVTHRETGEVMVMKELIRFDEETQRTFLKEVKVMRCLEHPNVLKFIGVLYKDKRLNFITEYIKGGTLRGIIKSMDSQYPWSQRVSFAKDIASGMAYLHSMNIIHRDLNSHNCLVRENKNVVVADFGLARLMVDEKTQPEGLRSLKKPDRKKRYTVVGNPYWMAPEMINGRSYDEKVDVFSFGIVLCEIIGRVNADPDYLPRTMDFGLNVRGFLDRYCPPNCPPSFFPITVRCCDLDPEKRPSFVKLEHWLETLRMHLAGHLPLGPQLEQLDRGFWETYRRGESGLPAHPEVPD
Chain of Casein kinase I isoform epsilon (Homo sapiens) (P49674 whole entry, looked up, canonical isoform): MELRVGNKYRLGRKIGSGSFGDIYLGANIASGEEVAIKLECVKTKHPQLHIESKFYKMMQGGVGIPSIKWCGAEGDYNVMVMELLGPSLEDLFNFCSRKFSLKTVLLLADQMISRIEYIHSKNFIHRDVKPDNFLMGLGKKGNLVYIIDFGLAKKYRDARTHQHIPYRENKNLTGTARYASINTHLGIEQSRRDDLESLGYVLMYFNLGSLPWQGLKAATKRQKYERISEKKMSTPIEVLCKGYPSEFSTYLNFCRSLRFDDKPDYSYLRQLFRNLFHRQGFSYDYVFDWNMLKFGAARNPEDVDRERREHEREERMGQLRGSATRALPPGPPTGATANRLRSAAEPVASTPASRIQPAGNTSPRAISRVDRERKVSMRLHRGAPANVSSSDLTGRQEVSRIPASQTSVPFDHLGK
Chain of Inhibitor of nuclear factor kappa-B kinase subunit epsilon (Homo sapiens) (Q14164 whole entry): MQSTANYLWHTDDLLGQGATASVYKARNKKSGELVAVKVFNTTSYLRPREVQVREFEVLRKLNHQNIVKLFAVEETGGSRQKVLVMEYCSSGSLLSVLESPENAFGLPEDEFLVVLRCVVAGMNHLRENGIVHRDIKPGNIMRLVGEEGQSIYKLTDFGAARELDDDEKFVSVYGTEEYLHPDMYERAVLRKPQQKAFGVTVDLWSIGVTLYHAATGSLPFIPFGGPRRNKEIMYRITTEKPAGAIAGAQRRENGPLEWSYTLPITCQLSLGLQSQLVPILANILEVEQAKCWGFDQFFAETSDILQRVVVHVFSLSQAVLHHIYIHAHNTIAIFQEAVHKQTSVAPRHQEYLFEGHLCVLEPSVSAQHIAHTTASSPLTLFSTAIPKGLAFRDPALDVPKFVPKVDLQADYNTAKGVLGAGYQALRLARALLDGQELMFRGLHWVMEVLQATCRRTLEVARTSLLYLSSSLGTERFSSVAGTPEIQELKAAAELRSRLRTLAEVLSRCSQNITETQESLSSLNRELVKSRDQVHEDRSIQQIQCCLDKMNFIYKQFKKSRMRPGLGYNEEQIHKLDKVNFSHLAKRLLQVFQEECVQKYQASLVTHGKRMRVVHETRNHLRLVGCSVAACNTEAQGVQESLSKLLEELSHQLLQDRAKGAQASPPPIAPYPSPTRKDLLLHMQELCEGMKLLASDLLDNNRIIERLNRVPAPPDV
Chain of Tyrosine-protein kinase FRK (Homo sapiens) (P42685 whole entry): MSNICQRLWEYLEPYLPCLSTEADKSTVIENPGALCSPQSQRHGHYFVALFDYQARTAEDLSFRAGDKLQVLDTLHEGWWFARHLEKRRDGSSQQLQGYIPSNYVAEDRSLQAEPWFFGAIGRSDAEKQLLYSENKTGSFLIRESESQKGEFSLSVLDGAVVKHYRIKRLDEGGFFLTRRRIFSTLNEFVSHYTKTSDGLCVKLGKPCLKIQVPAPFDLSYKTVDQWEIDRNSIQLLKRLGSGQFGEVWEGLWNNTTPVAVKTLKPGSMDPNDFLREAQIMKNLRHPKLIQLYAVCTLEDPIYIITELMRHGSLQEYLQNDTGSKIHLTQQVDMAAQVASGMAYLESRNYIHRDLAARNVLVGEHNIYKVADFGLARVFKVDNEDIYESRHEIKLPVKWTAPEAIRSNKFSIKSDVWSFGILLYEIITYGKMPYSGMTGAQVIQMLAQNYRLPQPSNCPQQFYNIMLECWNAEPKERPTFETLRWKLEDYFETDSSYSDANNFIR
Chain of CYP2C9 (P11712 whole entry): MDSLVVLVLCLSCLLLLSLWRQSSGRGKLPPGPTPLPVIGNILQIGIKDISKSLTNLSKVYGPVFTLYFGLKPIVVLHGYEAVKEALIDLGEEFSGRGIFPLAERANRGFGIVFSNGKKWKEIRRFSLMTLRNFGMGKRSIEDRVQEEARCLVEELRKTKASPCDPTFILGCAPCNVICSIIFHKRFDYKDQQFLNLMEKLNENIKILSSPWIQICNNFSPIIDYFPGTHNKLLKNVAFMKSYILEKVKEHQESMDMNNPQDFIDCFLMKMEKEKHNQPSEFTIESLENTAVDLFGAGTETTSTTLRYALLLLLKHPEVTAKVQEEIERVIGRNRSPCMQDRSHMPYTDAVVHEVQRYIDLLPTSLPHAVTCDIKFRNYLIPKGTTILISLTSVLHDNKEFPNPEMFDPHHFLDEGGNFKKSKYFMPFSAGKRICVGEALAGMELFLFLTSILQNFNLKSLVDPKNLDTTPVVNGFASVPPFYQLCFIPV

Which results are given for `O=C1c2ccc(Nc3ccc(F)cc3F)cc2CCc2ccc(OC[C@H](O)CO)cc21` [Skepinone-L]?
IC50 [1]: 90 nM; Activity [2]: 100%; Activity [3]: 100%; Activity [4]: 100%; Activity [5]: 94%; Activity [6]: 39%; Activity [7]: 94%; Activity [8]: 100%; Activity [9]: 100%; Activity [10]: 100%; Activity [11]: 101%; Activity [12]: 100%; Activity [13]: 86%; Activity [14]: 100%; Activity [15]: 97%; Activity [16]: 97%; Activity [17]: 90%; Activity [18]: 100%; Activity [19]: 98%; Activity [20]: 95%; Activity [21]: 100%; Activity [22]: 109%; Activity [23]: 99%; Activity [24]: 100%; IC50 [25]: 60 nM; Activity [26]: 100%; inhibition at 10 µM (CYP2C9): 65%; Activity [27]: 95%; Activity [28]: 98%
